What follows are compounds tested against T1, Beta-glucosidase (Agrobacterium sp. ATCC 21400, UniProt P12614) (assay: Inhibition of Agrobacterium sp. beta-glucosidase).
T1 sequence (P12614 whole entry): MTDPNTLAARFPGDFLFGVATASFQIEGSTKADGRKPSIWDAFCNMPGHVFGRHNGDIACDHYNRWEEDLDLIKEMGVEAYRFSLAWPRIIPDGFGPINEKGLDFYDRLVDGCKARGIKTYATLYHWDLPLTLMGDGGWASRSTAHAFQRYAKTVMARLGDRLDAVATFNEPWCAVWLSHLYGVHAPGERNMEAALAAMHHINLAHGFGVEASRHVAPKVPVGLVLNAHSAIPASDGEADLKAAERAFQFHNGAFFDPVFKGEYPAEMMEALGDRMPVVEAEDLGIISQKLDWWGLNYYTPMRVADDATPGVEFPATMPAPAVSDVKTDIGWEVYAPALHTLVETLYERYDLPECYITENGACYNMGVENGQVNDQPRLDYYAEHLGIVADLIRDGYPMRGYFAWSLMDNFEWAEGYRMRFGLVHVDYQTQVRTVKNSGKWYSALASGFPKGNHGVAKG

Row | Compound | Ki
1 | COC(=O)CCCCCNC(=O)[C@H](CCCCN1C[C@H](O)[C@@H](O)[C@H](O)[C@H]1CO)NS(=O)(=O)c1cccc2c(N(C)C)cccc12 | 6.2 µM
2 | COC(=O)CCCCCNC(=O)CCCCCN1[C@H](CO)[C@@H](O)[C@H](O)[C@H]1CNS(=O)(=O)c1cccc2c(N(C)C)cccc12 | 0.9 µM
3 | COC(=O)CCCCCNC(=O)[C@H](CCCCN1C[C@@H](O)[C@@H](O)[C@H](O)[C@H]1CO)NS(=O)(=O)c1cccc2c(N(C)C)cccc12 | 1000 µM

— ChEMBL document CHEMBL1141570, “Glycosidase profiling with immobilised glycosidase-inhibiting iminoalditols--a proof-of-concept study” (Bioorg Med Chem Lett, 2008)
